Reference: patent US20170196859A1, “PHARMACEUTICAL COMPOSITION COMPRISING PYRAZINE CARBOXAMIDE COMPOUND AS ACTIVE INGREDIENT” (Astellas Pharma Inc., priority 2014, published 2017)

Experiments:
BTK kinase = BTK kinase (Homo sapiens, UniProt Q06187); assay: BTK kinase inhibitory activity (QSS Assist BTK_MSA kit); assay type: biochemical; conditions: 30 min preincubation, ATP 1 mM, concentration as compound A free form
Procedure: The BTK kinase inhibitory activity was evaluated using QSS Assist BTK_MSA kit (Carna Bioscience).
The test compound B was dissolved in dimethyl sulfoxide (DMSO) to prepare a solution at a 100-fold concentration as compared to the final concentration. The solution was also 25-fold diluted with an appurtenant assay buffer to obtain a test compound B solution. In addition, BTK kinase appurtenant to the kit was used for the reaction.
5 μL of the test compound B solution at a 4-fold concentration, prepared using the aforementioned assay buffer, and 10 μL of a BTK kinase solution at a 2-fold concentration were mixed within a well of a 384 well plate, and left to undergo a reaction at room temperature for 30 minutes. Continuously, 5 μL of a substrate peptide/ATP/MgCl2 solution at a 4-fold concentration was added thereto to perform the reaction at room temperature for 1 hour. The substrate peptide was used at a final concentration of 1000 nM, ATP at a final concentration of 1 mM, and MgCl2 at a final concentration of 5 mM. Thereafter, 60 μL of an appurtenant termination buffer was added thereto to stop the reaction. The BTK kinase activity was calculated by quantifying a product conversion ratio obtained from the substrate peptide peak height and the product (phosphorylated substrate peptide) peak height with LabChip EZ Reader II (PerkinElmer). […]

[1] = test system: human mantle cell lymphoma cell line Rec-1 cells; assay: Proliferation inhibition, Rec-1 cells (CellTiter-Glo); assay type: cell-based; conditions: Rec1, 72 h, 3 days culture
Procedure: Rec-1 is a cell line originated from human mantle cell lymphoma, a kind of B-cell malignant neoplasm, and the BTK expression and phosphorylation have been confirmed (Cell Oncol. 2011; 34:141-153). The human mantle cell lymphoma cell line Rec-1 cells (American Type Culture Collection, CRL-3004) cultured in RPMI1640 medium (Sigma) containing 10% bovine serum were seeded into 96 well plates. On the next day, DMSO solutions of the test compound B at final concentrations from 1 nM to 10 μM or only DMSO (DMSO group) were added thereto to culture the cells at 37° C. in 5% CO2 for 3 days. Thereafter, the cell number was measured using a cell counting reagent (CellTiter-Glo (registered trademark) Luminescent Cell Viability Assay (Promega)). The cell proliferation inhibition rate was calculated as the measured value in the DMSO group set as 0% inhibition and the measured value in the well only with the medium on which the cells have not been seeded set as 100% inhibition.

[2] = test system: human acute megakaryocytic leukemia cell line CMK cells; assay: Proliferation inhibition, CMK cells (CellTiter-Glo); assay type: cell-based; conditions: 96 h, 4 days culture
Procedure: CMK is a cell line originated from human acute megakaryocytic leukemia and the activation of JAK 3 has been confirmed (Cancer Cell. 2006; 10:65-75). The human acute megakaryocytic leukemia cell line CMK cells (DSMZ, ACC392) cultured in RPMI1640 medium (Sigma) containing 20% bovine serum and 2 mM of glutamine were inoculated into 96 well plates. On the same day, DMSO solutions of the test compound B at final concentrations from 1 nM to 10 μM or only DMSO (DMSO group) were added thereto to culture the cells at 37° C. in 5% CO2 for 4 days. Thereafter, the cell number was measured using a cell counting reagent (CellTiter-Glo (registered trademark) Luminescent Cell Viability Assay (Promega)). The cell proliferation inhibition rate was calculated as the measured value in the DMSO group set as 0% inhibition and the measured value in the well only with the medium on which the cells have not been seeded set as 100% inhibition.

ITK kinase = target: T1, ITK kinase (Homo sapiens, UniProt Q08881); assay: ITK kinase inhibitory activity (Mobility Shift Assay); assay type: biochemical; conditions: ATP 1000 μM, read-out: inhibitory % against ITK kinase activity
T1 sequence (Q08881 1-620): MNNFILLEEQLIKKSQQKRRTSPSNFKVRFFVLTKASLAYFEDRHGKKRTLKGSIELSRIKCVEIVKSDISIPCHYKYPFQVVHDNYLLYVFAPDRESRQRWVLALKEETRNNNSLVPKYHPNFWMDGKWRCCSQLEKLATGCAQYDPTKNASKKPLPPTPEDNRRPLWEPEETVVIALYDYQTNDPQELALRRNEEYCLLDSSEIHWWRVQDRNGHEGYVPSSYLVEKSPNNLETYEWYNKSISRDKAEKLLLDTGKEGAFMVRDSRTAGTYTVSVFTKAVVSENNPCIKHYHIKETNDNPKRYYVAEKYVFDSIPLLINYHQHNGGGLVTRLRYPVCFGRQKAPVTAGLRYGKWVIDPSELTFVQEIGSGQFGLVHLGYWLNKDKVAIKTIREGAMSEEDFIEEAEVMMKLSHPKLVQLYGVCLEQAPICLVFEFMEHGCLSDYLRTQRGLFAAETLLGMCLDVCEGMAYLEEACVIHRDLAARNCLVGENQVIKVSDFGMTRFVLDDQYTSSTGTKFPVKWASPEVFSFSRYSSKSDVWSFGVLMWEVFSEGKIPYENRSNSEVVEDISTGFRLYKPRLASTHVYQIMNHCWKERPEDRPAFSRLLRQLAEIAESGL
Procedure: The ITK kinase inhibitory activity was evaluated using Mobility Shift Assay system.
The test compound B was dissolved in dimethyl sulfoxide (DMSO) to prepare a solution at a 100-fold concentration as compared to the test concentration. The solution was also 25-fold diluted with an assay buffer (20 mM HEPES, 0.01% Triton X-100, 1 mM DTT, pH 7.5) to obtain a test substance solution.
5 μL of the test compound B solution at a 4-fold concentration, prepared using the aforementioned assay buffer, and 10 μL of a ITK kinase solution at a 2-fold concentration were mixed within a well of a 384 well plate, and incubated at room temperature for 30 minutes. Continuously, 5 μL of a substrate peptide (Srctide, PEPTIDE INSTITUTE, INC. #AD-995)/ATP/MgCl2 solution at a 4-fold concentration was added thereto to perform the reaction at room temperature for 1 hour. The substrate peptide was used at a final concentration of 1000 nM, ATP at a final concentration of 1000 μM, and MgCl2 at a final concentration of 5 mM. Thereafter, 60 μL of a termination buffer (127 mM HEPES, 0.01% Triton X-100, 26.7 mM EDTA, 1% DMSO, pH 7.5) was added thereto to stop the reaction. The ITK kinase activity was calculated by quantifying a product conversion ratio obtained from the substrate peptide peak height and the product (phosphorylated substrate peptide) peak height with LabChip3000 (PerkinElmer). […]

Chain of BTK kinase (Q06187 whole entry): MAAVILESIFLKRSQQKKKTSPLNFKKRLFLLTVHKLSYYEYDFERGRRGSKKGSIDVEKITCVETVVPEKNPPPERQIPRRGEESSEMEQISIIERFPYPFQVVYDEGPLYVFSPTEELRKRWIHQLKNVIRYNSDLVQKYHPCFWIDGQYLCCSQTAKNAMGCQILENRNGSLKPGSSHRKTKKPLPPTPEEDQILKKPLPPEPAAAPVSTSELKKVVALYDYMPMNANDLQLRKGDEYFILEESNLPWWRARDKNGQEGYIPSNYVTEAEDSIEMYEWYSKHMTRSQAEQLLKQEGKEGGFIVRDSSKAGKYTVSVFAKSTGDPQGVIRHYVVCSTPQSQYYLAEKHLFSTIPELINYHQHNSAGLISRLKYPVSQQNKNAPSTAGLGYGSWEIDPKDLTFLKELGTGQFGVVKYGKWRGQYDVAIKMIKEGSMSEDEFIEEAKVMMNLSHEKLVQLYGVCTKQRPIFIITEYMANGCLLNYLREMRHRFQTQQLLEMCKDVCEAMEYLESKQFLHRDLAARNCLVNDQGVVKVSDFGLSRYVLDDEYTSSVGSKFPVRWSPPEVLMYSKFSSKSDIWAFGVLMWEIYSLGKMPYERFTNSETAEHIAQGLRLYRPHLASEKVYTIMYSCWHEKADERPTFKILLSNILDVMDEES

For `C=CC(=O)N1CC[C@@H](Oc2nc(Nc3ccc(N4CCC(N5CCN(C)CC5)CC4)cc3)c(C(N)=O)nc2CC)C1` [test compound B, 5-{[(3R)-1-acryloylpyrrolidin-3-yl]oxy}-6-ethyl-3-({4-[4-(4-methylpiperazin-1-yl)piperidin-1-yl]phenyl}amino)pyrazine-2-carboxamide monomethanesulfonate], the IC50 (BTK kinase) was 0.17 nM, the IC50 [1] was 68 nM and the IC50 [2] was 110 nM. For the same compound, the inhibition at 0.001 µM (ITK kinase; 1 nM test compound) was 29.5% and the inhibition at 0.01 µM (ITK kinase; 10 nM test compound) was 92.6%.
